Data taken from patent US20220046917A1, “ATTRACTANT BLEND COMPOSITIONS, DEVICES AND METHODS FOR ATTRACTING FEMALE MICE” (priority 2020, published 2022).

Key:
wild mice [1] = test: Experiment 3: field experiment, captures in paired baited trap boxes; assay type: in vivo, Mus musculus; details: Exp. 3, paired trap boxes
Method: (§1) Each replicate (n=49) consisted of paired trap boxes as depicted in FIG. 4. The paired trap boxes, PROTECTA® Mouse, Bell Laboratories Inc. Madison, Wis.
(§2) Twice every week, paired trap boxes were checked, and food lures and pheromone lures replaced. Whenever a mouse had been captured, its sex and age (juvenile or adult based on body size and genitalia development) were recorded, and a new trap box and snap trap were deployed. […] The position of the treatment and the control trap within paired trap boxes was re-randomized after each capture.
(§3) Experiments 3 and 4 evaluated the respective abilities of the CPCs and a blend of brevicomin and thiazole to enhance the attractiveness of testosterone. […] Specifically, in Experiment 3, the treatment box in each pair was baited with brevicomin (1 mg) and thiazole (1 mg) formulated in mineral oil (10 ml) and contained in a 20-ml glass scintillation vial. […] To minimize any potential sources of error, treatment and control trap boxes in each experiment were fitted with the same glassware and volume of mineral oil.

wild mice [2] = test: Experiment 4: field experiment, captures in paired baited trap boxes; assay type: in vivo, Mus musculus; details: Exp. 4, paired trap boxes
Method: as §1, §2, §3

## C[C@]12CC[C@H]3[C@@H](CCC4=CC(=O)CC[C@@]43C)[C@@H]1CC[C@@H]2O [testosterone]
Wild mice [1]
  adult female mice captured: one
Wild mice [2]
  adult females captured: four
  adult males captured: seven
  juvenile male captured: one
